Patent US12496357B2, “Compositions and methods for treating sickle cell disease” (Yale University, priority 2019, dated 2025)

What was measured:
[1] = tested on: SCD mutation (β-globin gene), bulk mouse bone marrow cells; assay: SCD gene correction by ddPCR of gDNA, bulk bone marrow cells treated ex vivo; format: cell-based; details: for effect of added factor on gene editing frequencies by ddPCR: bulk bone marrow and HSPCs (lin−) treated with tcPNA 2 nanoparticles, particularly in HSPCs; for effect of DNA repair modulator on editing vs NP only: PLA-HPG nanoparticles encapsulating tcPNA 2 or sertcPNA 2
Protocol: Bulk mouse bone marrow cells were treated with PLGA NPs encapsulating tcPNA 1A, 2A, 3A and correcting donor DNA molecules.
Bulk bone marrow cells were treated with PLGA NPs encapsulating modified (tc PNA 2A) and unmodified versions (tc PNA 2) of PNA sequence. 72 hours after treatment, gDNA was isolated and analyzed for editing frequencies by ddPCR.
(§1) Bulk bone marrow cells were treated with PLGA NPs encapsulating unmodified PNA (tcPNA 2). 72 hours after treatment HSPCs, were isolated from bulk cells via negative and positive selection, and gene editing all three populations was compared.
(§2) Bulk bone marrow and HSPCs (lin^−) were treated with tcPNA 2 nanoparticles and combinations of stem cell factor, erythropoietin, and plerixafor. 72 hours after treatment, gDNA was isolated and analyzed for editing frequencies by ddPCR.
Bulk bone marrow cells were treated with tcPNA 2 encapsulated into poly(lactic-co-glycolic acid) (PLGA), or poly(lactic acid)PLA-HPG.
Nanoparticles made from poly(lactic acid) (PLA) conjugated to hyperbranched polyglycerols (HPG), referred to as PLA-HPG, were synthesized using a double emulsion solvent evaporation protocol. Briefly, 50 mg of PLA-HPG was dissolved in 2.4 mL of ethyl acetate and 0.6 mL of DMSO. PNA and donor DNA were heated to 60° C. for 10 minutes, mixed, and immediately added dropwise to the polymer solution under vortex. This 1st emulsion (water-in-oil) was sonicated 3 times at 38% amplitude for 10 seconds using a probe sonicator. Following sonication, the primary emulsion was added dropwise to 4 mL of diH2O, forming the second emulsion (water-in-oil-in-water), which was subsequently sonicated as above. Nanoparticles were further diluted in 20 mL of diH2O. Residual organic solvent was removed using a rotovap. After solvent removal, nanoparticles were collected via centrifugation in Amicon 100K filter tubes. Following a second washing step, nanoparticles were resuspended in diH2O, frozen, and stored as 100 μl aliquots containing 2 mg of nanoparticles. Where indicated, low molecular weight PLA-HPG (P7H9-2) or high molecular weight PLA-HPG (P7H3-18) was used.
Bulk bone marrow cells were treated with PLGA or PLA-HPG nanoparticles encapsulating unmodified (tcPNA 2) and serine modified (^sertcPNA 2) along with correcting donor DNA molecules.
Experiments were designed to test the effects of DNA repair inhibition on gene editing. Bulk bone marrow cells were treated with PLA-HPG nanoparticles encapsulating tcPNA 2 or ^sertcPNA 2, with or without the addition of small molecule modulators of DNA repair: RS-1, RI-1, RI-2, B0-2, or SCR-7.

[2] = tested on: SCD mutation (β-globin gene), CD117+ HSPCs; assay: SCD gene correction by ddPCR of gDNA, CD117+ HSPCs; format: cell-based, mouse
Protocol: Bulk bone marrow cells were treated with PLGA NPs encapsulating tcPNA 1A, 2A, 3A and correcting donor DNA molecules. 72 hours after treatment, HSPCs were isolated by CD117+ selection. gDNA was harvested from these cells and assayed for gene correction via ddPCR.
as §1

[3] = tested on: SCD mutation (β-globin gene), HSPCs (lin−); assay: SCD gene correction by ddPCR of gDNA, HSPCs (lin−) isolated via negative selection; format: cell-based, mouse; details: PLGA NPs encapsulating tcPNA 2; 72 hours; comparison of three cell populations
Protocol: as §1, §2

[4] = tested on: double-stranded DNA target (200 bp); assay: PNA incubation with double-stranded DNA target, triplex band; format: binding; details: unmodified tcPNA 2 vs modified tcPNA 2A; both temperature conditions
Protocol: Modified (tcPNA 2A) and unmodified (tcPNA 2) PNAs were incubated with a double-stranded DNA target (200 bp) at indicated temperatures.

Berk hemizygous mice = assay: In vivo gene editing in Berk hemizygous mice treated with nanoparticles; parameters: species or system mouse; details: nanoparticles encapsulating tcPNA 2 and donor DNA, intravenous
Description: Experiments were designed to test the ability of tcPNA 2 to drive gene editing in vivo.
Berk hemizygous mice treated with nanoparticles encapsulating unmodified SCD-tcPNA 2: H-KKK-TTJJTJT-OOO-[…]-KKK-NH2 (SEQ ID NO:5) K indicates lysine; J, pseudoisocytosine (for C) for pH-independent triplex formation. O, 8-amino-2,6,10-trioxaoctanoic acid linkers connecting the Hoogsteen and Watson-Crick domains of the tcPNAs, serine modified bases (bold and underlined) along the Watson-Crick domain and donor DNA: […]

[5] = tested on: Primary mouse bone marrow cells; assay: Cytokine expression in primary mouse bone marrow cells after NP treatment; format: cell-based; details: PLGA NPs encapsulating tcPNA 1A and correcting donor DNA; 48 hours after treatment
Protocol: The toxicity and safety of PNA/donor DNA delivery using nanoparticles were investigated. Primary mouse bone marrow cells were treated with PLGA nanoparticles (NPs) encapsulating tcPNA 1A and correcting donor DNA. 48 hours after treatment cells were spun, media collected, and assayed for cytokine expression.

[6] = bulk bone marrow cells, 1 uM dose
[7] = bulk bone marrow cells, 10 uM dose
[8] = PLGA NPs encapsulating tcPNA 2, 72 hours, comparison of three cell populations

## O=c1c2ccccc2nc(/C=C/c2cccnc2)n1Cc1ccccc1 [B0-2]
[1]; bulk bone marrow cells, PLA-HPG nanoparticles encapsulating tcPNA 2 or sertcPNA 2, with or without modulator of DNA repair
  gene editing frequencies: ~12%

## c1cc(CN2CCCNCCNCCCNCC2)ccc1CN1CCCNCCNCCCNCC1 [Plerixafor, plerixafor]
[1]; 72 hours
  effect of added factor on gene editing frequencies by ddPCR: increased gene editing frequencies

## O=C1C(Cl)=C(N2CCOCC2)C(=O)N1c1ccc(Cl)c(Cl)c1 [RI-1]
[1]; [6]
  effect of DNA repair modulator on editing vs NP only: higher levels of editing
[1]; [7]
  effect of DNA repair modulator on editing vs NP only: reduced levels

## O=C(Nc1ccc(Br)cc1)c1ccc(Br)c(S(=O)(=O)NCc2ccccc2)c1 [RS-1]
[1]; [6]
  effect of DNA repair modulator on editing vs NP only: reduced editing frequencies
[1]; [7]
  effect of DNA repair modulator on editing vs NP only: higher levels of editing

## O=c1[nH]c(=S)[nH]c(N=Cc2ccccc2)c1N=Cc1ccccc1 [SCR-7]
[1]; [6]
  effect of DNA repair modulator on editing vs NP only: decreased PNA-mediated gene editing
[1]; [7]
  effect of DNA repair modulator on editing vs NP only: decreased PNA-mediated gene editing

## SCF: stem cell factor, C-kit ligand
[1]; 72 hours
  effect of added factor on gene editing frequencies by ddPCR: increased gene editing frequencies

## ^sertcPNA 2: tc PNA 2 sequence (SEQ ID NO:5) modified with a hydroxymethyl (serine) group at the γ position along the Watson-Crick domain (TTNNTNTTCTCCTTAAACCTGTCTT; gamma-serine (hydroxymethyl) modified PNA backbone, chemistry not fully specified)
[1]; bulk bone marrow cells, PLGA or PLA-HPG nanoparticles with donor DNA, even at lower NP doses
  gene editing relative to unmodified tcPNA 2: increased gene editing appreciably

## lys-lys-lys-TTJJTJT-OOO-TCTCCTTAAACCTGTCTT-lys-lys-lys (SEQ ID NO:5) (TTNNTNTTCTCCTTAAACCTGTCTT; PNA, lysine ends, OOO linker, chemistry not fully specified) [tcPNA 2, tail-clamp PNA oligomer targeting the β-globin gene]
[1]; [8]
  gene editing by ddPCR, bulk population: appreciable editing
[1]; bulk bone marrow cells, PLGA NPs, unmodified tcPNA 2 vs mini-PEG modified tcPNA 2A, 72 hours
  level of editing (correction of the SCD mutation) by ddPCR: highest level of editing
[2]; [8]
  gene editing by ddPCR, CD117+ population: appreciable editing
[3]
  gene editing by ddPCR, HSPCs isolated via negative selection: highest levels of editing
[4]
  invasion of duplex DNA (triplex band): superior invasion of duplex DNA
Berk hemizygous mice
  gene editing in vivo: can Drive Gene Editing In Vivo

## tcPNA 1A: SEQ ID NO:14 tail-clamp PNA with alternating mini-PEG modified bases along the Watson-Crick domain (NNTNTTNCTTCTCCACAGGAGTCAG; alternating gamma mini-PEG modified PNA units, chemistry not fully specified)
[5]
  inflammatory cytokine expression: did not produce inflammatory cytokine expression

## tcPNA 2A: SEQ ID NO:5 tail-clamp PNA with alternating mini-PEG modified bases along the Watson-Crick domain (TTNNTNTTCTCCTTAAACCTGTCTT; alternating gamma mini-PEG modified PNA units, chemistry not fully specified)
[1]; bulk mouse bone marrow cells, PLGA NPs encapsulating tcPNA 1A, 2A, 3A and donor DNA, compared with each other
  level of gene editing as measured by ddPCR (SCD gene correction): highest level of gene editing
[2]; CD117+ HSPCs isolated 72 hours after treatment, PLGA NPs encapsulating tcPNA 1A, 2A, 3A and donor DNA, compared with each other
  level of gene editing as measured by ddPCR (SCD gene correction): highest level of gene editing
